Experimental data as given in ChEMBL document CHEMBL5120842, “Application of partially aromatic ortho-quionone-methides for the synthesis of novel naphthoxazines with improved antibacterial activity” (2022).
In brackets after ≈: the same amount, converted by molar mass.

Tests used:
Type in all cases: functional
Staphylococcus aureus [1] = assay: (§1) Antibacterial activity against Gram-positive methicillin and oxacillin-resistant Staphylococcus aureus ATCC 43300 assessed as inhibition of efflux pump by measuring intracellular accumulation of ethidium bromide at 100 uM and measured every minute for 1 hr by fluorescence based microtiter plate reader analysis
Escherichia coli [2] = assay: Antibacterial activity against Gram-negative Escherichia coli K-12 AG100 expressing AcrAB-TolC efflux pump assessed as inhibition of bacterial growth by CLSI protocol based assay
Staphylococcus aureus [3] = assay: Inhibition of efflux pump in Gram-positive methicillin and oxacillin-resistant Staphylococcus aureus ATCC 43300 assessed as relative fluorescence index using ethidium bromide as substrate at 100 uM and measured after 1 hr by fluorescence based microtiter plate reader analysis
Staphylococcus aureus [4] = assay: (§2) Antibacterial activity against Gram-positive methicillin-susceptible Staphylococcus aureus ATCC 25923 assessed as inhibition of efflux pump by measuring intracellular accumulation of ethidium bromide at 50 uM and measured every minute for 1 hr by fluorescence based microtiter plate reader analysis
Escherichia coli [5] = assay: Inhibition of efflux pump in Gram-negative Escherichia coli K-12 AG100 expressing AcrAB-TolC efflux pump assessed as relative fluorescence index using ethidium bromide as substrate at 50 uM and measured after 1 hr by fluorescence based microtiter plate reader analysis
Staphylococcus aureus [6] = assay: (§3) Antibacterial activity against Gram-positive methicillin-susceptible Staphylococcus aureus ATCC 25923 assessed as inhibition of efflux pump by measuring intracellular accumulation of ethidium bromide at 100 uM and measured every minute for 1 hr by fluorescence based microtiter plate reader analysis
Escherichia coli [7] = assay: as §2, with “Gram-negative Escherichia coli K-12 AG100 expressing AcrAB-TolC efflux pump” for “Gram-positive methicillin-susceptible Staphylococcus aureus ATCC 25923”
Escherichia coli [8] = assay: as §3, with “Gram-negative Escherichia coli K-12 AG100 expressing AcrAB-TolC efflux pump” for “Gram-positive methicillin-susceptible Staphylococcus aureus ATCC 25923”
Escherichia coli [9] = assay: Inhibition of efflux pump in Gram-negative Escherichia coli K-12 AG100 expressing AcrAB-TolC efflux pump assessed as relative fluorescence index using ethidium bromide as substrate at 100 uM and measured after 1 hr by fluorescence based microtiter plate reader analysis
Staphylococcus aureus [10] = assay: Inhibition of efflux pump in Gram-positive methicillin-susceptible Staphylococcus aureus ATCC 25923 assessed as relative fluorescence index using ethidium bromide as substrate at 50 uM and measured after 1 hr by fluorescence based microtiter plate reader analysis
Staphylococcus aureus [11] = assay: Inhibition of efflux pump in Gram-positive methicillin-susceptible Staphylococcus aureus ATCC 25923 assessed as relative fluorescence index using ethidium bromide as substrate at 100 uM and measured after 1 hr by fluorescence based microtiter plate reader analysis
Staphylococcus aureus [12] = assay: Inhibition of efflux pump in Gram-positive methicillin and oxacillin-resistant Staphylococcus aureus ATCC 43300 assessed as relative fluorescence index using ethidium bromide as substrate at 50 uM and measured after 1 hr by fluorescence based microtiter plate reader analysis
Staphylococcus aureus [13] = assay: as §1, with “50” for “100”
Staphylococcus aureus [14] = assay: Antibacterial activity against Gram-positive methicillin and oxacillin-resistant Staphylococcus aureus ATCC 43300 assessed as inhibition of bacterial growth by CLSI protocol based assay
Staphylococcus aureus [15] = assay: Antibacterial activity against Gram-positive methicillin-susceptible Staphylococcus aureus ATCC 25923 assessed as inhibition of bacterial growth by CLSI protocol based assay
Staphylococcus aureus [16] = assay: Inhibition of efflux pump in Gram-positive methicillin-susceptible Staphylococcus aureus ATCC 25923 assessed as relative fluorescence index using ethidium bromide as substrate at 25 uM and measured after 1 hr by fluorescence based microtiter plate reader analysis
Staphylococcus aureus [17] = assay: Inhibition of efflux pump in Gram-positive methicillin and oxacillin-resistant Staphylococcus aureus ATCC 43300 assessed as relative fluorescence index using ethidium bromide as substrate at 25 uM and measured after 1 hr by fluorescence based microtiter plate reader analysis
Staphylococcus aureus [18] = assay: Antibacterial activity against Gram-positive methicillin-susceptible Staphylococcus aureus ATCC 25923 assessed as inhibition of efflux pump by measuring intracellular accumulation of ethidium bromide at 25 uM and measured every minute for 1 hr by fluorescence based microtiter plate reader analysis
Staphylococcus aureus [19] = assay: as §1, with “25” for “100”
Staphylococcus aureus [20] = assay: Inhibition of efflux pump in Gram-positive methicillin-susceptible Staphylococcus aureus ATCC 25923 assessed as relative fluorescence index using ethidium bromide as substrate at 3.125 uM and measured after 1 hr by fluorescence based microtiter plate reader analysis
Staphylococcus aureus [21] = assay: as §2, with “3.125” for “50”

CCOC(=O)[C@H]1c2ccc3ccccc3c2O[C@@H]2c3ccccc3CCN21 (relative stereo)
Activity (Staphylococcus aureus [1]): 114226
MIC (Escherichia coli [2]): > 100 µM
Activity (Staphylococcus aureus [3]): 0.46
Activity (Staphylococcus aureus [4]): 44414.33
Activity (Escherichia coli [5]): 0.09
Activity (Staphylococcus aureus [6]): 42864
Activity (Escherichia coli [7]): 37156.33
Activity (Escherichia coli [8]): 36999.33
Activity (Escherichia coli [9]): 0.08
Activity (Staphylococcus aureus [10]): 0.61
Activity (Staphylococcus aureus [11]): 0.55
Activity (Staphylococcus aureus [12]): 0.43
Activity (Staphylococcus aureus [13]): 111300.67
MIC (Staphylococcus aureus [14]): > 100 µM
MIC (Staphylococcus aureus [15]): > 100 µM

CCOC(=O)[C@H]1c2c(ccc3ccccc23)O[C@@H]2c3ccsc3CCN21 (relative stereo)
Activity (Staphylococcus aureus [1]): 88655.67
MIC (Escherichia coli [2]): > 100 µM
Activity (Staphylococcus aureus [3]): 0.14
Activity (Staphylococcus aureus [4]): 29306
Activity (Escherichia coli [5]): 0
Activity (Staphylococcus aureus [6]): 33816.67
Activity (Escherichia coli [7]): 34078.33
Activity (Escherichia coli [8]): 34921.33
Activity (Escherichia coli [9]): 0.02
Activity (Staphylococcus aureus [10]): 0.06
Activity (Staphylococcus aureus [11]): 0.22
Activity (Staphylococcus aureus [12]): 0.13
Activity (Staphylococcus aureus [13]): 88184.67
MIC (Staphylococcus aureus [14]): > 100 µM
MIC (Staphylococcus aureus [15]): > 100 µM

CCOC(=O)[C@H]1c2c(ccc3ccccc23)O[C@@H]2c3[nH]c4ccccc4c3CCN21 (relative stereo)
Activity (Staphylococcus aureus [1]): 78009
MIC (Escherichia coli [2]): > 100 µM
Activity (Staphylococcus aureus [3]): 0
Activity (Staphylococcus aureus [4]): 27892.33
Activity (Escherichia coli [5]): 0.01
Activity (Staphylococcus aureus [6]): 29131.67
Activity (Escherichia coli [7]): 34706
Activity (Escherichia coli [8]): 36337.67
Activity (Escherichia coli [9]): 0.06
Activity (Staphylococcus aureus [10]): 0.01
Activity (Staphylococcus aureus [11]): 0.05
Activity (Staphylococcus aureus [12]): -0.03
Activity (Staphylococcus aureus [13]): 76072
MIC (Staphylococcus aureus [14]): > 100 µM
MIC (Staphylococcus aureus [15]): > 100 µM

N#CC(C#N)=NNc1cccc(Cl)c1 [CARBONYL CYANIDE M-CHLOROPHENYLHYDRAZONE]
Activity (Escherichia coli [5]): 1.12
Activity (Escherichia coli [7]): 72448.33

CCOC(=O)C(c1ccc2ccccc2c1O)N1CCOCC1 (centres undefined)
Activity (Staphylococcus aureus [1]): 18886
MIC (Escherichia coli [2]): > 100 µM
Activity (Staphylococcus aureus [3]): -0.76
Activity (Staphylococcus aureus [4]): 11677.33
Activity (Escherichia coli [5]): -0.78
Activity (Staphylococcus aureus [6]): 7624.33
Activity (Escherichia coli [7]): 7485.67
Activity (Escherichia coli [8]): 6561.67
Activity (Escherichia coli [9]): -0.81
Activity (Staphylococcus aureus [10]): -0.58
Activity (Staphylococcus aureus [11]): -0.72
Activity (Staphylococcus aureus [12]): -0.28
Activity (Staphylococcus aureus [13]): 56126.33
MIC (Staphylococcus aureus [14]): > 100 µM
MIC (Staphylococcus aureus [15]): > 100 µM

CCOC(=O)[C@H]1c2c(ccc3ccccc23)O[C@@H]2c3ccccc3CCN21 (relative stereo)
Activity (Staphylococcus aureus [1]): 93822.67
MIC (Escherichia coli [2]): > 100 µM
Activity (Staphylococcus aureus [3]): 0.2
Activity (Staphylococcus aureus [4]): 31759
Activity (Escherichia coli [5]): 0.05
Activity (Staphylococcus aureus [6]): 31231.67
Activity (Escherichia coli [7]): 35837.67
Activity (Escherichia coli [8]): 36732
Activity (Escherichia coli [9]): 0.07
Activity (Staphylococcus aureus [10]): 0.15
Activity (Staphylococcus aureus [11]): 0.13
Activity (Staphylococcus aureus [12]): 0.19
Activity (Staphylococcus aureus [13]): 92734
MIC (Staphylococcus aureus [14]): > 100 µM
MIC (Staphylococcus aureus [15]): > 100 µM

CCOC(=O)C(c1c(O)ccc2ccccc12)N1CCOCC1 (centres undefined)
Activity (Staphylococcus aureus [1]): 84280
MIC (Escherichia coli [2]): > 100 µM
Activity (Staphylococcus aureus [3]): 0.08
Activity (Staphylococcus aureus [4]): 58168.67
Activity (Escherichia coli [5]): 0.29
Activity (Staphylococcus aureus [6]): 51721
Activity (Escherichia coli [7]): 44310
Activity (Escherichia coli [8]): 36685.33
Activity (Escherichia coli [9]): 0.07
Activity (Staphylococcus aureus [10]): 1.1
Activity (Staphylococcus aureus [11]): 0.87
Activity (Staphylococcus aureus [12]): 0.12
Activity (Staphylococcus aureus [13]): 87762.67
MIC (Staphylococcus aureus [14]): > 100 µM
MIC (Staphylococcus aureus [15]): > 100 µM

COC(=O)[C@H]1[C@H]2C[C@@H]3c4[nH]c5cc(OC)ccc5c4CCN3C[C@H]2C[C@@H](OC(=O)c2cc(OC)c(OC)c(OC)c2)[C@@H]1OC [RESERPINE]
Activity (Staphylococcus aureus [16]): 0.96
Activity (Staphylococcus aureus [17]): 0.3
Activity (Staphylococcus aureus [18]): 54056
Activity (Staphylococcus aureus [19]): 101532.7

CCOC(=O)[C@H]1c2ccc3ccccc3c2O[C@@H]2c3[nH]c4ccccc4c3CCN21 (relative stereo)
Activity (Staphylococcus aureus [1]): 90479.33
MIC (Escherichia coli [2]): > 100 µM
Activity (Staphylococcus aureus [3]): 0.16
Activity (Staphylococcus aureus [20]): 0.26
Activity (Escherichia coli [5]): -0.02
Activity (Escherichia coli [7]): 33567.67
Activity (Escherichia coli [8]): 32220.33
Activity (Staphylococcus aureus [21]): 34824.33
Activity (Escherichia coli [9]): -0.06
Activity (Staphylococcus aureus [12]): 0.09
Activity (Staphylococcus aureus [13]): 84683
MIC (Staphylococcus aureus [14]): > 100 µM
MIC (Staphylococcus aureus [15]): 6.25 µM (≈ 2.49 µg/mL)

CCOC(=O)[C@H]1c2ccc3ccccc3c2O[C@@H]2c3ccsc3CCN21 (relative stereo)
Activity (Staphylococcus aureus [1]): 103410
MIC (Escherichia coli [2]): > 100 µM
Activity (Staphylococcus aureus [3]): 0.33
Activity (Staphylococcus aureus [4]): 36826.67
Activity (Escherichia coli [5]): 0.01
Activity (Staphylococcus aureus [6]): 77859.67
Activity (Escherichia coli [7]): 34561.67
Activity (Escherichia coli [8]): 35945.67
Activity (Escherichia coli [9]): 0.05
Activity (Staphylococcus aureus [10]): 0.33
Activity (Staphylococcus aureus [11]): 1.82
Activity (Staphylococcus aureus [12]): 0.3
Activity (Staphylococcus aureus [13]): 101450.33
MIC (Staphylococcus aureus [14]): > 100 µM
MIC (Staphylococcus aureus [15]): > 100 µM
